Active and inactive are the calls of the source. The calls are words filed in the database; no cut-off is given here. Starred links: 1 amine or outer side, 2 acyl side, 3 side chain; linkers in the order of their positions; H or OH if unused. Positions of bridges follow the written chain, without caps; N, C: chain ends. Residues, ends and D or L forms follow the SMILES beside them. *: point of attachment. X2 = CC(C)[C@@H](CNC(N)=O)NC(=O)NC[C@H](C)NC(=O)NC[C@H](CSCC(=O)NCCNC(=O)C[*:1])N[*:2]; X1 = CC(C)[C@@H](CNC(N)=O)NC(=O)NC[C@H](C)NC(=O)NC[C@H](CSCCCCCC[*:1])N[*:2]; X6 = CC(C)[C@@H](CNC(N)=O)NC(=O)NC[C@H](CSCCCCCC[*:1])NC(=O)NC[C@H](C)N[*:2]; X5 = CC(C)[C@@H](CNC(N)=O)NC(=O)NC[C@H](C)NC(=O)NC[C@H](CSCCC[*:1])N[*:2]; X3 = CC(C)[C@@H](CNC(N)=O)NC(=O)NC[C@H](C)NC(=O)NC[C@H](C)N*; NH(CH2CH2O)2(CH2)6Cl = ClCCCCCCOCCOCCN*; Suc = O=C(CCC(=O)[*:2])[*:1]; X4 = C(C[*:1])C[*:2]
Assays:
[1] = molecular target: Tumour suppressor protein p53/Mdm4 (Homo sapiens) (UniProt P04637+O15151); experiment: PROTAC activity at human DMX/p53 extracted from Escherichia coli interaction at 100 nM by measuring inhibition of interaction by time-resolved fluorescence energy transfer (TRFRET) detection method relative to control; type: protein assay
Chain of Tumour suppressor protein p53/Mdm4 (Homo sapiens) (O15151 whole entry, looked up): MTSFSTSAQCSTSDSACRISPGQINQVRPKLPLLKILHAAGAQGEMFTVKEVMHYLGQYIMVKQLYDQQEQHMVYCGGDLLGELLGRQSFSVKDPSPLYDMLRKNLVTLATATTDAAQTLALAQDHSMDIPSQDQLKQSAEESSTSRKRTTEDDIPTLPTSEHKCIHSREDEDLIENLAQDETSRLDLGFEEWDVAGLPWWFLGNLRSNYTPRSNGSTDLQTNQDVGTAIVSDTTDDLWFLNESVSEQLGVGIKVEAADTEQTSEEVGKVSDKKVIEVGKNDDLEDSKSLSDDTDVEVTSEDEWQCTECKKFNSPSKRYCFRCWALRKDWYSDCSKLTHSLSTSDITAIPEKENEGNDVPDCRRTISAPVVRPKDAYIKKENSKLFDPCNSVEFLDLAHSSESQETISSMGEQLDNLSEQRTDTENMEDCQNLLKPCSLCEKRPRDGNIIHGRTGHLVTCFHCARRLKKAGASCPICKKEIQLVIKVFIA
Chain of Tumour suppressor protein p53/Mdm4 (Homo sapiens) (P04637 whole entry, looked up): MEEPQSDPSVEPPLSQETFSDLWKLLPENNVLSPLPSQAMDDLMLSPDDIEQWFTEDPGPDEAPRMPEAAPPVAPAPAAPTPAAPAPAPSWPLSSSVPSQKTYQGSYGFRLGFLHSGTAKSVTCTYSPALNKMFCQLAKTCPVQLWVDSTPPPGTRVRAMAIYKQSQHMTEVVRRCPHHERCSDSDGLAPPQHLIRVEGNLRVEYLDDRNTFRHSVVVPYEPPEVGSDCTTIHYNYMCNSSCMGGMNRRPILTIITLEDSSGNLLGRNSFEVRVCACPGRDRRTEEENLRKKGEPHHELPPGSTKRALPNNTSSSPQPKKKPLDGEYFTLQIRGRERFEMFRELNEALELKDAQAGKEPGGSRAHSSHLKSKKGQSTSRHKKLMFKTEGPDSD

[2] = test system: HCT-116; experiment: Cytotoxicity against human HCT-116 cells assessed as cell viability at 100 uM by MTS cell viability assay; type: functional, cell-based
[3] = test system: HCT-116; experiment: Cytotoxicity against human HCT116 cells expressing wild type p53 and overexpressing human DM2 assessed as cell viability measured after 72 hrs incubation by MTS cell viability assay; type: functional, cell-based
[4] = molecular target: Tumour suppressor protein p53/Mdm4 (Homo sapiens, UniProt O15151); experiment: PROTAC activity at human DMX/p53 extracted from Escherichia coli interaction by measuring inhibition of interaction by time-resolved fluorescence energy transfer (TRFRET) detection method; type: protein assay
Chain of Tumour suppressor protein p53/Mdm4 (P04637 whole entry): as the sequence (P04637 whole entry, looked up) above
Chain of Tumour suppressor protein p53/Mdm4 (O15151 whole entry): as the sequence (O15151 whole entry, looked up) above

[5] = PROTAC activity at human DM2/p53 extracted from Escherichia coli interaction by measuring inhibition of interaction by time-resolved fluorescence energy transfer (TRFRET) detection method
[6] = molecular target: Tumour suppressor p53/oncoprotein Mdm2 (Homo sapiens) (UniProt P04637+Q00987); experiment: PROTAC activity at human MDM2/p53 extracted from Escherichia coli interaction by measuring inhibition of interaction at 100 nM by time-resolved fluorescence energy transfer (TRFRET) detection method relative to control; type: protein assay
Chain of Tumour suppressor p53/oncoprotein Mdm2 (Homo sapiens) (P04637 whole entry, looked up): as the sequence (P04637 whole entry, looked up) above
Chain of Tumour suppressor p53/oncoprotein Mdm2 (Homo sapiens) (Q00987 whole entry, looked up): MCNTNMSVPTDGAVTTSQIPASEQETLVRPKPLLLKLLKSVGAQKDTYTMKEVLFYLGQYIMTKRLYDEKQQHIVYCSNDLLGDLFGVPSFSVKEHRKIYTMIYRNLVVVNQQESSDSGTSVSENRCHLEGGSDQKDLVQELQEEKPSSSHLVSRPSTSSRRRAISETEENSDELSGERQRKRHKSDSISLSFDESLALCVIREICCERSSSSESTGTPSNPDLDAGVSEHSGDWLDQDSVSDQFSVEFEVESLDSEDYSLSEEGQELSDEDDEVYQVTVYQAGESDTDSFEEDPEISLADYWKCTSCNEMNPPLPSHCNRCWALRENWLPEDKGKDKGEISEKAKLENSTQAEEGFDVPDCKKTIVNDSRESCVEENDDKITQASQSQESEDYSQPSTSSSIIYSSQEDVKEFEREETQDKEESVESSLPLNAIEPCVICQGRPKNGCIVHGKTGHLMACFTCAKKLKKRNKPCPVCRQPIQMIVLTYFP

[7] = test system: MCF7; experiment: Cytotoxicity against human MCF7 cells expressing wild type p53 and overexpressing human DMX assessed as cell viability measured after 72 hrs incubation by MTS cell viability assay; type: functional, cell-based
[8] = test system: HCT-116; experiment: Cytotoxicity against human HCT-116 cells assessed as cell viability at 0.1 to 40 uM measured after 2 hrs incubation by LDH release assay; type: functional, cell-based; settings: dose 0.1-40 µM
[9] = test system: HCT-116; experiment: Induction of p53 level in human HCT-116 cells expressing wild type p53 measured after 6 hrs by Western blotting analysis; type: functional, cell-based; settings: dose 0.1-40 µM
[10] = test system: HCT-116; experiment: Induction of P21 RNA level in human HCT-116 cells expressing wild type p53 measured after 6 hrs by RT-qPCR analysis; type: functional, cell-based; settings: dose 0.1-10 µM
[11] = test system: HCT-116; experiment: Induction of hDM2 RNA level in human HCT-116 cells expressing wild type p53 measured after 6 hrs by RT-qPCR analysis; type: functional, cell-based; settings: dose 0.1-10 µM
[12] = Permeability in human HeLa cells transfected with Halo-GFP-Mito assessed as accumulation in cytosol measured after 4 hrs incubation by chloroalkane penetration assay; type: ADME, subcellular
[13] = test system: SW480; experiment: Cytotoxicity against human SW480 cells expressing […] assessed as cell viability at 0.1 to 40 uM measured after 72 hrs incubation by MTS cell viability assay; type: functional, cell-based; settings: dose 0.1-40 µM
[14] = test system: HCT-116; experiment: Effect on increase in p21 RNA level in human HCT-116 cells at 10 uM measured after 6 hrs by RT-qPCR analysis; type: functional, cell-based
[15] = test system: HCT-116; experiment: Effect on increase in […] RNA level in human HCT-116 cells at 10 uM measured after 6 hrs by RT-qPCR analysis; type: functional, cell-based

Row | inhibition [1] [%] | IC50 [4] [nM] | IC50 [5] [nM] | inhibition [6] | Compound | further results
1 | 52 | 127000 | 19.3 | 97% | CC(C)[C@@H](CNC(N)=O)NC(=O)NC[C@H](C)NC(=O)NC[C@@H]1CSCCCCCCSC[C@H](NC(=O)[C@H](Cc2ccccc2)NC(=O)[C@H](CO)NC(=O)[C@@H](N)[C@@H](C)O)C(=O)N[C@@H](CCC(=O)O)C(=O)N[C@@H](Cc2ccc(O)cc2)C(=O)N[C@@H](Cc2c[nH]c3ccccc23)C(=O)N1 (H-TSFCEYW; linker 4-C via X1) | Activity [2]: inactive; Activity [3]: inactive; Activity [7]: inactive
2 |  | 262000 | 15.8 |  | CC(=O)N[C@@H](CC(C)C)C(=O)N[C@H](C(=O)N[C@@H](Cc1ccccc1)C(=O)N[C@H]1CSCCCCCCSC[C@@H](CNC(=O)N[C@@H](C)CNC(=O)N[C@H](CNC(N)=O)C(C)C)NC(=O)[C@H](Cc2c[nH]c3ccccc23)NC(=O)[C@H](Cc2ccc(O)cc2)NC(=O)[C@H](CCC(=O)O)NC1=O)[C@@H](C)O (Ac-LTFCEYW; linker 4-C via X1) | Activity [8]: Not active; Indicating Absence Of Direct Effect On Cell Membranes; Activity [9]: Dose-dependent-effect; Similar To Nutlin-3A And Able To Increase As Low As 0.5 Um; Activity [10]: Dose-dependent-effect; Activity [11]: Dose-dependent-effect
3 |  | 62700 | 10.2 | inactive | CC(C)[C@@H](CNC(N)=O)NC(=O)NC[C@H](C)NC(=O)NC[C@@H]1CSCCCCCCSC[C@H](NC(=O)[C@H](Cc2ccccc2)NC(=O)[C@H](CO)NC(=O)[C@@H](NC(=O)[C@H](CCCCN)NC(=O)[C@@H](N)CCCCN)[C@@H](C)O)C(=O)N[C@@H](CCC(=O)O)C(=O)N[C@@H](Cc2ccc(O)cc2)C(=O)N[C@@H](Cc2c[nH]c3ccccc23)C(=O)N1 (H-KKTSFCEYW; linker 6-C via X1) | Activity [1]: inactive; Activity [13]: Active
4 |  | 45400 | 8.95 | inactive | CC(C)[C@@H](CNC(N)=O)NC(=O)NC[C@H](C)NC(=O)NC[C@@H]1CSCCCCCCSC[C@H](NC(=O)[C@H](Cc2ccccc2)NC(=O)[C@H](CO)NC(=O)[C@H](CCCCN)NC(=O)[C@@H](N)CCCCN)C(=O)N[C@@H](CCC(=O)O)C(=O)N[C@@H](Cc2ccc(O)cc2)C(=O)N[C@@H](Cc2c[nH]c3ccccc23)C(=O)N1 (H-KKSFCEYW; linker 5-C via X1) | Activity [1]: inactive; Activity [13]: Active
5 | 98 | 10300 | 3.6 | 99% | CC(C)[C@@H](CNC(N)=O)NC(=O)NC[C@H](C)NC(=O)NC[C@@H]1CSCC(=O)NCCNC(=O)CSC[C@H](NC(=O)[C@H](Cc2ccccc2)NC(=O)[C@H](CO)NC(=O)[C@H](CCCCN)NC(=O)[C@H](CCCNC(=N)N)NC(=O)[C@H](CCCNC(=N)N)NC(=O)[C@@H](N)CCCNC(=N)N)C(=O)N[C@@H](CCC(=O)O)C(=O)N[C@@H](Cc2ccc(O)cc2)C(=O)N[C@@H](Cc2c[nH]c3ccccc23)C(=O)N1 (H-RRRKSFCEYW; linker 7-C via X2) | Activity [3]: Not active; Compound Was Poorly Active Even At High Concentration; Activity [7]: inactive

More lines, now with the values behind:

Row | Compound | inhibition [1] [%] | IC50 [4] [nM] | IC50 [5] [nM] | inhibition [6] | further results
6 | CC(C)[C@@H](CNC(N)=O)NC(=O)NC[C@H](C)NC(=O)NC[C@@H]1CSCCCCCCSC[C@H](NC(=O)[C@H](Cc2ccccc2)NC(=O)[C@H](CO)NC(=O)[C@H](CCCCN)NC(=O)[C@H](CCCNC(=N)N)NC(=O)[C@H](CCCNC(=N)N)NC(=O)[C@H](CCCNC(=N)N)NC(=O)CCC(=O)NCCOCCOCCCCCCCl)C(=O)N[C@@H](CCC(=O)O)C(=O)N[C@@H](Cc2ccc(O)cc2)C(=O)N[C@@H](Cc2c[nH]c3ccccc23)C(=O)N1 ({NH(CH2CH2O)2(CH2)6Cl-Suc}-RRRKSFCEYW; linker 7-C via X1) |  |  |  |  | EC50 [12]: 1900 nM
7 | CC(C)[C@@H](CNC(N)=O)NC(=O)NC[C@H](C)NC(=O)NC[C@@H]1CSCC(=O)NCCNC(=O)CSC[C@H](NC(=O)[C@H](Cc2ccccc2)NC(=O)[C@H](CO)NC(=O)[C@H](CCCCN)NC(=O)[C@H](CCCNC(=N)N)NC(=O)[C@H](CCCNC(=N)N)NC(=O)[C@H](CCCNC(=N)N)NC(=O)CCC(=O)NCCOCCOCCCCCCCl)C(=O)N[C@@H](CCC(=O)O)C(=O)N[C@@H](Cc2ccc(O)cc2)C(=O)N[C@@H](Cc2c[nH]c3ccccc23)C(=O)N1 ({NH(CH2CH2O)2(CH2)6Cl-Suc}-RRRKSFCEYW; linker 7-C via X2) |  |  |  |  | EC50 [12]: 3300 nM
8 | CC(C)[C@@H](CNC(N)=O)NC(=O)NC[C@H](C)NC(=O)NC[C@@H]1CSCCCCCCSC[C@H](NC(=O)[C@H](Cc2ccccc2)NC(=O)[C@@H](NC(=O)[C@H](CCCCN)NC(=O)CCC(=O)NCCOCCOCCCCCCCl)[C@@H](C)O)C(=O)N[C@@H](CCC(=O)O)C(=O)N[C@@H](Cc2ccc(O)cc2)C(=O)N[C@@H](Cc2c[nH]c3ccccc23)C(=O)N1 ({NH(CH2CH2O)2(CH2)6Cl-Suc}-KTFCEYW; linker 4-C via X1) |  |  |  |  | EC50 [12]: 510 nM
9 | CC(C)[C@@H](CNC(N)=O)NC(=O)NC[C@@H]1CSCCCCCCSC[C@H](NC(=O)[C@H](C)NC(=O)[C@H](Cc2ccccc2)NC(=O)[C@H](CO)NC(=O)[C@@H](N)[C@@H](C)O)C(=O)N[C@@H](Cc2ccc(O)cc2)C(=O)N[C@@H](Cc2c[nH]c3ccccc23)C(=O)N[C@@H](C)CNC(=O)N1 (H-TSFACYW; linker 5-C via X6) | 11 | 196000 | 33.1 | 86% | 
10 | CC(C)[C@@H](CNC(N)=O)NC(=O)NC[C@H](C)NC(=O)NC[C@H](C)NC(=O)[C@H](Cc1c[nH]c2ccccc12)NC(=O)[C@H](Cc1ccc(O)cc1)NC(=O)[C@H](CCC(=O)O)NC(=O)[C@H](C)NC(=O)[C@H](Cc1ccccc1)NC(=O)[C@@H](NC(=O)[C@H](CCCCN)NC(=O)CCC(=O)NCCOCCOCCCCCCCl)[C@@H](C)O ({NH(CH2CH2O)2(CH2)6Cl-Suc}-KTFAEYW-X3) |  |  |  |  | EC50 [12]: 1950 nM
11 | COc1ccc(C2=N[C@@H](c3ccc(Cl)cc3)[C@@H](c3ccc(Cl)cc3)N2C(=O)N2CCNC(=O)C2)c(OC(C)C)c1 |  |  |  |  | Activity [14]: Active; Activity [15]: Active
12 | CC(C)[C@@H](CNC(N)=O)NC(=O)NC[C@H](C)NC(=O)NC[C@H](C)NC(=O)[C@H](Cc1c[nH]c2ccccc12)NC(=O)[C@H](Cc1ccc(O)cc1)NC(=O)[C@@H]1CSCCCSC[C@H](N)C(=O)N[C@@H](CO)C(=O)N[C@@H](Cc2ccccc2)C(=O)N[C@@H](C)C(=O)N1 (H-CSFACYW-X3; linker 1-5 via X4) | 68 | 80000 | 23.4 | 98% | 
13 | CC(C)[C@@H](CNC(N)=O)NC(=O)NC[C@H](C)NC(=O)NC[C@@H]1CSCC(=O)NCCNC(=O)CSC[C@H](NC(=O)[C@H](Cc2ccccc2)NC(=O)[C@H](CO)NC(=O)[C@@H](N)[C@@H](C)O)C(=O)N[C@@H](CCC(=O)O)C(=O)N[C@@H](Cc2ccc(O)cc2)C(=O)N[C@@H](Cc2c[nH]c3ccccc23)C(=O)N1 (H-TSFCEYW; linker 4-C via X2) | 91 | 28000 | 10.1 | 99% | Activity [2]: inactive
14 | CC(C)[C@@H](CNC(N)=O)NC(=O)NC[C@H](C)NC(=O)NC[C@H](C)NC(=O)[C@H](Cc1c[nH]c2ccccc12)NC(=O)[C@H](Cc1ccc(O)cc1)NC(=O)[C@H](CCC(=O)O)NC(=O)[C@H](C)NC(=O)[C@H](Cc1ccccc1)NC(=O)[C@H](CO)NC(=O)[C@@H](N)[C@@H](C)O (H-TSFAEYW-X3) | 61 | 82000 | 23.8 | 97% | 
15 | CC(C)[C@@H](CNC(N)=O)NC(=O)NC[C@H](C)NC(=O)NC[C@@H]1CSCCCSC[C@H](NC(=O)[C@H](Cc2ccccc2)NC(=O)[C@H](CO)NC(=O)[C@@H](N)[C@@H](C)O)C(=O)N[C@@H](CCC(=O)O)C(=O)N[C@@H](Cc2ccc(O)cc2)C(=O)N[C@@H](Cc2c[nH]c3ccccc23)C(=O)N1 (H-TSFCEYW; linker 4-C via X5) | 50 | 108000 | 25.6 | 86% | 
16 | N[C@@H](Cc1c[nH]c2ccccc12)C(=O)O [TRYPTOPHAN] |  |  |  |  | EC50 [12]: 87 nM
17 | CC(C)[C@@H](CNC(N)=O)NC(=O)NC[C@H](C)NC(=O)NC[C@H](C)NC(=O)[C@H](Cc1c[nH]c2ccccc12)NC(=O)[C@H](Cc1ccc(O)cc1)NC(=O)[C@@H]1CSCCCSC[C@H](NC(=O)[C@@H](N)[C@@H](C)O)C(=O)N[C@@H](Cc2ccccc2)C(=O)N[C@@H](C)C(=O)N1 (H-TCFACYW-X3; linker 2-5 via X4) | 20 | 763000 | 109 | 41% | 

Reference: ChEMBL document CHEMBL6087461, “Cell-Permeable Peptide Inhibitors of the p53-hDM2 Interaction via Foldamer Helix Mimicry and Bis-Thioether Stapling” (J Med Chem, 2025)
